According to PubChem BioAssay (NCI):
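48-hour exposure; five concentrations; linearly interpolated endpoints. TGI denotes the concentration required for complete inhibition of growth.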

Experiments:
Test in all cases: NCI-60 cell line screen, 48 h
786-0 renal = tested on: 786-0 renal
A549 NSCLC = tested on: A549 NSCLC
CAKI-1 renal = tested on: CAKI-1 renal
CCRF-CEM leukemia = tested on: CCRF-CEM leukemia
DLD-1 colon = tested on: DLD-1 colon
HCT-15 colon = tested on: HCT-15 colon
HL-60(TB) leukemia = tested on: HL-60(TB) leukemia
HOP-62 NSCLC = tested on: HOP-62 NSCLC
IGROV1 ovarian = tested on: IGROV1 ovarian
K-562 leukemia = tested on: K-562 leukemia
LXFL 529 NSCLC = tested on: LXFL 529 NSCLC
OVCAR-4 ovarian = tested on: OVCAR-4 ovarian
SK-OV-3 ovarian = tested on: SK-OV-3 ovarian
SN12C renal = tested on: SN12C renal
SNB-19 CNS = tested on: SNB-19 CNS
SW-620 colon = tested on: SW-620 colon
TK-10 renal = tested on: TK-10 renal
U251 CNS = tested on: U251 CNS
A498 renal = tested on: A498 renal
ACHN renal = tested on: ACHN renal
BT-549 breast = tested on: BT-549 breast
COLO 205 colon = tested on: COLO 205 colon
DU-145 prostate = tested on: DU-145 prostate
EKVX NSCLC = tested on: EKVX NSCLC
HCC-2998 colon = tested on: HCC-2998 colon
HCT-116 colon = tested on: HCT-116 colon
HOP-92 NSCLC = tested on: HOP-92 NSCLC
HS 578T breast = tested on: HS 578T breast
HT29 colon = tested on: HT29 colon
KM12 colon = tested on: KM12 colon
LOX IMVI melanoma = tested on: LOX IMVI melanoma
M14 melanoma = tested on: M14 melanoma
MALME-3M melanoma = tested on: MALME-3M melanoma
MCF7 breast = tested on: MCF7 breast
MDA-MB-231 breast = tested on: MDA-MB-231 breast
MDA-MB-435 = tested on: MDA-MB-435
MDA-N = tested on: MDA-N
NCI-H226 lung = tested on: NCI-H226 lung
NCI-H23 lung = tested on: NCI-H23 lung
NCI-H460 lung = tested on: NCI-H460 lung
NCI-H522 lung = tested on: NCI-H522 lung
NCI/ADR-RES ovarian = tested on: NCI/ADR-RES ovarian
OVCAR-3 ovarian = tested on: OVCAR-3 ovarian
OVCAR-5 ovarian = tested on: OVCAR-5 ovarian
OVCAR-8 ovarian = tested on: OVCAR-8 ovarian
PC-3 prostate = tested on: PC-3 prostate
RPMI-8226 leukemia = tested on: RPMI-8226 leukemia
RXF 393 renal = tested on: RXF 393 renal
SF-268 CNS = tested on: SF-268 CNS
SF-295 CNS = tested on: SF-295 CNS
SK-MEL-2 melanoma = tested on: SK-MEL-2 melanoma
SK-MEL-28 melanoma = tested on: SK-MEL-28 melanoma
SK-MEL-5 melanoma = tested on: SK-MEL-5 melanoma
SNB-75 CNS = tested on: SNB-75 CNS
SR leukemia = tested on: SR leukemia
T-47D breast = tested on: T-47D breast
UACC-257 melanoma = tested on: UACC-257 melanoma
UACC-62 melanoma = tested on: UACC-62 melanoma
UO-31 renal = tested on: UO-31 renal

## COc1cccc2c1C(=O)c1c(O)c3c(c(O)c1C2=O)C[C@@](O)(C(=O)CO)CC3OC1CC(NCCOCC(OC(C)=O)OC(C)=O)C(O)C(C)O1 (stereo not given in full)
786-0 renal
  TGI: 3.16 µM
A549 NSCLC
  TGI: > 100 µM
CAKI-1 renal
  TGI: > 100 µM
CCRF-CEM leukemia
  TGI: > 100 µM
DLD-1 colon
  TGI: 380 nM
HCT-15 colon
  TGI: 14.4 nM
HL-60(TB) leukemia
  TGI: > 100 µM
HOP-62 NSCLC
  TGI: 9 nM
IGROV1 ovarian
  TGI: 3.04 µM
K-562 leukemia
  TGI: > 100 µM
LXFL 529 NSCLC
  TGI: 12.2 µM
OVCAR-4 ovarian
  TGI: 31.1 µM
SK-OV-3 ovarian
  TGI: 47.9 µM
SN12C renal
  TGI: 1320 nM
SNB-19 CNS
  TGI: > 100 µM
SW-620 colon
  TGI: 1710 nM
TK-10 renal
  TGI: > 100 µM
U251 CNS
  TGI: 1230 nM

## CCC(Nc1ncnc2nc[nH]c12)C(=O)O (stereo not given)
786-0 renal
  TGI: > 100 µM
A498 renal
  TGI: > 100 µM
A549 NSCLC
  TGI: > 100 µM
ACHN renal
  TGI: > 100 µM
BT-549 breast
  TGI: > 100 µM
CAKI-1 renal
  TGI: > 100 µM
CCRF-CEM leukemia
  TGI: > 100 µM
COLO 205 colon
  TGI: > 100 µM
DU-145 prostate
  TGI: > 100 µM
EKVX NSCLC
  TGI: > 100 µM
HCC-2998 colon
  TGI: > 100 µM
HCT-116 colon
  TGI: > 100 µM
HCT-15 colon
  TGI: > 100000 nM
HL-60(TB) leukemia
  TGI: > 100 µM
HOP-62 NSCLC
  TGI: > 100000 nM
HOP-92 NSCLC
  TGI: > 100 µM
HS 578T breast
  TGI: > 100 µM
HT29 colon
  TGI: > 100 µM
IGROV1 ovarian
  TGI: > 100 µM
K-562 leukemia
  TGI: > 100 µM
KM12 colon
  TGI: > 100 µM
LOX IMVI melanoma
  TGI: > 100 µM
M14 melanoma
  TGI: > 100 µM
MALME-3M melanoma
  TGI: > 100 µM
MCF7 breast
  TGI: > 100 µM
MDA-MB-231 breast
  TGI: > 100 µM
MDA-MB-435
  TGI: > 100 µM
MDA-N
  TGI: > 100 µM
NCI-H226 lung
  TGI: > 100 µM
NCI-H23 lung
  TGI: > 100 µM
NCI-H460 lung
  TGI: > 100 µM
NCI-H522 lung
  TGI: > 100 µM
NCI/ADR-RES ovarian
  TGI: > 100 µM
OVCAR-3 ovarian
  TGI: > 100 µM
OVCAR-4 ovarian
  TGI: > 100 µM
OVCAR-5 ovarian
  TGI: > 100 µM
OVCAR-8 ovarian
  TGI: > 100 µM
PC-3 prostate
  TGI: > 100 µM
RPMI-8226 leukemia
  TGI: > 100 µM
RXF 393 renal
  TGI: > 100 µM
SF-268 CNS
  TGI: > 100 µM
SF-295 CNS
  TGI: > 100 µM
SK-MEL-2 melanoma
  TGI: > 100 µM
SK-MEL-28 melanoma
  TGI: > 100 µM
SK-MEL-5 melanoma
  TGI: > 100 µM
SK-OV-3 ovarian
  TGI: > 100 µM
SN12C renal
  TGI: > 100000 nM
SNB-19 CNS
  TGI: > 100 µM
SNB-75 CNS
  TGI: > 100 µM
SR leukemia
  TGI: > 100 µM
SW-620 colon
  TGI: > 100000 nM
T-47D breast
  TGI: > 100 µM
TK-10 renal
  TGI: > 100 µM
U251 CNS
  TGI: > 100000 nM
UACC-257 melanoma
  TGI: > 100 µM
UACC-62 melanoma
  TGI: > 100 µM
UO-31 renal
  TGI: > 100 µM
